Numbering of substitutions follows the chain as printed. Like-named read-outs stand apart in the source and are kept apart here.
Assays:
[1] = target: T1, Nurr1 LBD Arg563Ala + His516Ala (Homo sapiens, UniProt P43354, H516A/R563A); assay: MST binding to Arg563Ala + His516Ala double mutant Nurr1 LBD; conditions: for Amplitude (% change) / KD (% change): Table 1, H516A/R563A relative to WT; for Amplitude: Table 1, MST amplitude, H516A/R563A; for Response Amplitude: Table 2, MST, Arg563Ala + His516Ala
T1 construct: Mutants of LAP2 Nurr1 were prepared by GenScript starting from LAP2 Nurr1 vector; made in house
T1 sequence (P43354 with tags, fused parts or gaps H516A/R563A): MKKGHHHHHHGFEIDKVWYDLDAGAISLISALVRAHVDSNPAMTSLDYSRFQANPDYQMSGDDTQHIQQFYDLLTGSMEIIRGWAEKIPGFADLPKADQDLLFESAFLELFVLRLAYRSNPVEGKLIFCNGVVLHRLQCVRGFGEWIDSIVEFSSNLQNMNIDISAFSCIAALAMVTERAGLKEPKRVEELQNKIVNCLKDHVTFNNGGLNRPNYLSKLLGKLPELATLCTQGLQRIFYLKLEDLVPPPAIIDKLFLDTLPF
Description: (§1) The plasmid used for the expression of LAP2-tagged Nurr1 LBDs (LAP2 Nurr1) was prepared by GenScript (Piscataway, N.J.) as the product of gene synthesis and subcloning into pET-21a(+) Vector (GenScript) using the Ndel and Xhol sites within the MCS. Mutants of LAP2 Nurr1 were prepared by GenScript starting from LAP2 Nurr1 vector.
(§2) Concentration-dependent association of the indoles with the Nurr1 LBD was carried out using microscale thermophoresis. Stock solutions (10 mM in DMSO) of each indole were serially diluted (200 μM indole, 0.5× dilutions down to 0.0061 μM) in MST buffer (25 mM HEPES, pH 7.4, 150 mM NaCl, and 0.1% Pluronic F127) containing 2% DMSO. The dilutions were carried out with 4% DMSO in the MST buffer for a total of 16 concentrations. Equivalent volumes and concentrations of the fluorescently labeled Nurr1 LBD in MST buffer were added to each ligand dilution in the series to reach a final concentration of 75 nM labeled protein. After incubating for 20 minutes, the samples were loaded into Monolith NT.115 Capillaries (Nanotemper).
(§3) Data were collected using the Monolith NT.115 System (Nanotemper), with settings for all samples at 40% excitation power and 40% MST power. The initial fluorescence was recorded for 3 sec and the thermophoresis fluorescence response was recorded for 20 sec. The data was inspected with Palmist software^5, and data points affected by initial fluorescence quenching or photobleaching were eliminated. The fluorescent response for each sample was normalized to the initial fluorescence using Palmist software to provide the values of thermophoresis (Fn). The resulting data was used to generate a plot of the change in thermophoresis (Fn-Fn0, where Fn=thermophoresis and Fn0=thermophoresis response in unbound range) versus concentration of the ligand. GraphPad Prism v. 8.3.0 software was used to fit the resulting data to a mass action equation for a specific binding with Hill slope, solving for KD: Fn-Fn0═Fmax·[L]^n/(KD^n+[L]^n), where Fmax=maximum amplitude of thermophoresis, [L]=concentration of the ligand at a specific point, KD=dissociation constant, nH=Hill Coefficient.

[2] = target: T2, Nurr1 LBD His516Ala (Homo sapiens, UniProt P43354, H516A); assay: MST binding to His516Ala mutant Nurr1 LBD; conditions: for Amplitude (% change) / KD (% change): Table 1, H516 relative to WT; for Amplitude: Table 1, MST amplitude, H516; for Response Amplitude: Table 2, MST, His516Ala
T2 construct: Mutants of LAP2 Nurr1 were prepared by GenScript starting from LAP2 Nurr1 vector; made in house
T2 sequence (P43354 with tags, fused parts or gaps H516A): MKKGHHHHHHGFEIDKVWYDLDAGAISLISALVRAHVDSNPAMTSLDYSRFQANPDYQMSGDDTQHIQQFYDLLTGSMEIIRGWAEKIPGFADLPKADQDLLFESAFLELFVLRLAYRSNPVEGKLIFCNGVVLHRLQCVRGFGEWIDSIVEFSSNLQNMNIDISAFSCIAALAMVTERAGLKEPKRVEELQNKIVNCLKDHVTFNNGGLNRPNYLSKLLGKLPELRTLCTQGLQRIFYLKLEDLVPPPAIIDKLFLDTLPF
Description: as §1, §2, §3

[3] = target: T3, Nurr1 LBD (wildtype) (Homo sapiens, UniProt P43354); assay: Microscale thermophoresis (MST) binding to wildtype Nurr1 LBD; conditions: for Binding to the Nurr1 LBD (in words): MST; for Amplitude: Table 1, MST amplitude, WT; for Response Amplitude: Table 2, MST, Wildtype
T3 construct: made in house
T3 sequence (P43354 with tags, fused parts or gaps): as the sequence (P43354 with tags, fused parts or gaps H516A) above, with A180H counted along it
Description: as §2, §3
To investigate the potential impact of compound nano-aggregation on binding affinity, we used dynamic light scattering to inspect the aggregation of 5-chlorindole in solution and repeated the MST binding experiments in the presence of increasing concentrations of the surfactant Pluoronic F127 (FIGS. 12A-12D). […] As well, increasing concentrations of the surfactant Pluronic F127 had small effects (<2-fold) on the affinity of 5-chloroindole for the Nurr1 LBD (FIGS. 12A-12D).

[4] = target: T4, Nurr1 LBD Arg563Ala (Homo sapiens, UniProt P43354, R563A); assay: MST binding to Arg563Ala mutant Nurr1 LBD; conditions: for Amplitude: Table 1, MST amplitude, R563A; for Amplitude (% change) / KD (% change): Table 1, R563A relative to WT; for Response Amplitude: Table 2, MST, Arg563Ala
T4 construct: Mutants of LAP2 Nurr1 were prepared by GenScript starting from LAP2 Nurr1 vector; made in house
T4 sequence (P43354 with tags, fused parts or gaps R563A): T1 sequence (P43354 with tags, fused parts or gaps H516A/R563A) with A180H
Description: as §1, §2, §3

[5] = tested on: Nurr1 target genes Th and Vmat2 in MN9D cells; assay: Target gene transcription assay (qPCR) in MN9D cells; format: cell-based, mouse
Description: Target Gene Transcription Assays. These assays were carried out using standard protocols. MN9D TET-ON frozen cell stocks (P5) were thawed and grown for 60-72 h on poly-D-lysine pre-treated culture dishes (100 mm) in Dulbecco's Modified Eagle Medium/Nutrient Mixture F-12 (DMEM/F-12; Gibco) supplemented with 5% Tet System Approved FBS (Takara Bio USA) at 37° C., 5% C02 to ˜80% confluency. The resulting cells were then trypsinized with 0.25% Trypsin-EDTA (Gibko) and diluted to 2·10^5 cells/ml with fresh medium. The resulting cell suspension (0.8 mL) was added to 2× concentrated compound in the same medium containing 0.2% DMSO (0.8 mL) in an Eppendorf tube. The cell suspension with compound or vehicle (DMSO) was then seeded onto a 24-well plate pre-treated with Poly-D-Lysine at 0.8 mL per well. Assays were performed under conditions of basal Nurr1 expression, without induction of additional Nurr1 expression using doxycycline.
After 24 h, total RNA was extracted the cells in each well using the Quick-RNA MiniPrep Plus Kit (Zymo Research), according to the manufacturer's instructions. The cDNA was then synthesized from 1000 ng of purified RNA using High-Capacity cDNA Reverse Transcription Kit (Applied Biosystems) and used as template. The qPCR as performed using iTaq Universal SYBR Green Supermix (BioRad) and CFX96 Real-Time Detection System machine (BioRad). Briefly, qPCR was performed in hard-shell 96-well PCR plates (BioRad) using cDNA corresponding to 8.75 ng of starting total RNA in a volume of 15 μl, containing 7.5 μl of SYBR Green Supermix, and 1 μL of 10 μM forward and reverse primers. Cycling parameters for qPCR included an initial denaturation at 95° C. for 3 min, followed by 40 cycles of 95° C. for 5 s and annealing at 56° C. for 30 s. The forward and reverse primers (Table 4) were ordered from IDT. Gene expression was quantified by the comparative2-ΔΔCt method, with the mouse housekeeping gene hypoxanthine-guanine phosphoribosyltransferase (Hprt) used as internal reference to determine the relative mRNA expression. Transcript levels for target genes were normalized to the housekeeping gene Hprt and fold change was compared to gene expression levels from vehicle (DMSO) only treated cells. GraphPad Prism 8 software was used for statistical analysis. Two-way ANOVA was applied for DMSO fold change vs compound. Results are from three independent experiments. Relative average expression±SD; *p<0.05, **p<0.01, ***p<0.001, ****p<0.0001 by ANOVA in comparison expression with 0 μM compound (DMSO only).

[6] = Chemical stability in solution; format: physicochemical; conditions: observed during data acquisition
[7] = tested on: MN9D cells; assay: CytoTox-Glo cytotoxicity assay; format: cell-based; conditions: 24 h treatment, 10 μM unless stated
Description: Cytotoxicity assays were carried out using the CytoTox-Glo Cytotoxicity Assay Kit (Promega) according to the manufacturer's instructions. Briefly, MN9D cells were resuspended in DMEM/F-12 with 5% FBS at 2·10^5 cells/ml and added to an equal volume of two-fold concentrated compound in the same media containing 0.2% DMSO (prepared by diluting DMSO stock of the compound in warm DMEM/F-12 with 5% FBS; for DMSO control equivalent volume of DMSO was used instead of the compound stock), and immediately re-plated onto poly-D-lysine pre-treated 96-well white-walled flat clear bottom plate (Corning cat #3903) at a density of 1·10^4 cells/well (100 μL/well), 3 replicas per compound. As a background (BG) control, for each of the compound (or DMSO) equivalent volume of compound mixed with DMEM/F-12+5% FBS was plated. After 24 h treatment at 37° C., in 5% C02 incubator, 50 μL of CytoTox-Glo™ Cytotoxicity Assay Reagent was added to each well, mixed briefly by orbital shaking and incubated for 15 min at ambient temperature. Luminescence signal corresponding to dead cells was measured using Biotek Synergy H4 hybrid microplate reader. After the measurement, 50 μL of Lysis Reagent was added to each well, mixed, incubated for 15 min at ambient temperature, and total luminescence was measured. The percentage of viable cells was then calculated as follows: Percent Viable Cells (%)=100% (Total cell luminescence (test compound)—Dead cell luminescence (test compound))/(Total cell luminescence (DMSO)—Dead cell luminescence (DMSO)).

[8] = Table 1, Nurr1 variant H516A/R563A, read-out: KD
[9] = Table 2, Arg563Ala + His516Ala, read-out: Affinity (KD)
[10] = Table 1, Nurr1 variant H516, read-out: KD
[11] = Table 2, His516Ala, read-out: Affinity (KD)
[12] = Table 1, Nurr1 variant WT, read-out: KD
[13] = Table 2, Wildtype, read-out: Affinity (KD)
[14] = Table 1, Nurr1 variant R563A, read-out: KD
[15] = Table 2, Arg563Ala, read-out: Affinity (KD)

SMILES | Amplitude (% change) [1] | KD (% change) [1] | Amplitude [1] | Kd [1, 8] [µM] | Kd [1, 9] [µM] | Response Amplitude [1] | Amplitude (% change) [2] | KD (% change) [2] | Amplitude [2] | Kd [2, 10] [µM] | Kd [2, 11] [µM] | Response Amplitude [2] | Binding to the Nurr1 LBD (in words) [3] | Amplitude [3] | Kd [3, 12] [µM] | Response Amplitude [3] | Kd [3, 13] [µM] | Amplitude [4] | Chemical instability in solution [6] | Cytotoxicity / cell viability [7] | further results
Brc1cc2cc[nH]c2cc1Br [5,6-dibromoindole] | +39% | +627% | 43 + 5 | 16 | 15.6 | 43 + 5 (ns) | +13% | +186% | 35 + 2 | 6.3 | 6.4 | 35 + 2 (ns) | saturable binding | 31 + 1 | 2.2 | 31 + 1 | 2.2 | 32 + 3 |  |  | Kd [4, 14]: 11 µM; Amplitude (% change) [4]: +3%; KD (% change) [4]: +400%; Kd [4, 15]: 11 µM; Response Amplitude [4]: 32 + 3 (ns); Effect on expression of Nurr1 target genes Th and Vmat2 (in words) [5]: does not
Clc1cc2cc[nH]c2cc1Cl [5,6-dichloroindole] | 0% | +304% | 54 + 5 | 18 | 17.9 | 54 + 5 (ns) | +19% | +166% | 67 + 9 | 12 | 12 | 67 + 9 (ns) | saturable binding | 54 + 4 | 4.5 | 54 + 4 | 4.5 | 47 + 3 |  |  | Kd [4, 14]: 13 µM; Amplitude (% change) [4]: −13%; KD (% change) [4]: +189%; Kd [4, 15]: 13.1 µM; Response Amplitude [4]: 47 + 3 (ns); Effect on expression of Nurr1 target genes Th and Vmat2 (in words) [5]: does not
Nc1ccc2[nH]ccc2c1 [5-aminoindole] |  |  |  |  |  |  |  |  |  |  |  |  |  |  |  |  |  |  | autooxidation and polymerization in solution | significant cytotoxicity | 
Oc1ccc2[nH]ccc2c1 [5-hydroxyindole] |  |  |  |  |  |  |  |  |  |  |  |  |  |  |  |  |  |  | autooxidation and polymerization in solution | significant cytotoxicity | 
Nc1ccc2cc[nH]c2c1 [6-aminoindole] |  |  |  |  |  |  |  |  |  |  |  |  |  |  |  |  |  |  | autooxidation and polymerization in solution | significant cytotoxicity | 
Oc1ccc2cc[nH]c2c1 [6-hydroxyindole] |  |  |  |  |  |  |  |  |  |  |  |  |  |  |  |  |  |  | autooxidation and polymerization in solution | significant cytotoxicity | 
